Test results reported in the supplement of paper PMC10307832.

Key:
Experiment in all cases: relative viability (nuclei count vs DMSO), 5 days (fraction); higher = more cells survive
[1] = compound: CCn1c(-c2nonc2N)nc2cnc(Oc3cccc(NC(=O)c4ccc(OCCN5CCOCC5)cc4)c3)cc21 + CC(C)C[C@H](NC(=O)[C@H](Cc1ccccc1)NC(=O)c1cnccn1)B(O)O [Bortezomib] (partner 0.002 µM)
How it was run: (§1)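 Lung cancer cell lines, seeded in 1536-well plates, were treated the following day by pin tool with a single drug or with five library-drug doses (not always all listed) in √10 steps on top of a fixed anchor-drug dose. Cells were fixed and nuclei stained in one step after 5 days, and nuclei were counted. Relative viability is the nuclei count for treated wells divided by that for vehicle wells, reported as medians of duplicate plates.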

[2] = compound: CCC1=CN=CN=C1N2CCN(CC2)CC3=NC4=C(N3)C=C(C=C4)C(F)(F)F + COc1cccc2cc(-c3nc([C@H]4CC[C@H](C(=O)O)CC4)n4ncnc(N)c34)[nH]c12 [OSI-027] (partner 0.5 µM)
How it was run: as §1

[3] = compound: CCC1=CN=CN=C1N2CCN(CC2)CC3=NC4=C(N3)C=C(C=C4)C(F)(F)F + N=C(N)NC(=N)NCCc1ccccc1 [Phenformin] (partner 250 µM)
How it was run: as §1

Mirin + Bortezomib = compound: N=C1NC(=O)/C(=C/c2ccc(O)cc2)S1 [Mirin] + CC(C)C[C@H](NC(=O)[C@H](Cc1ccccc1)NC(=O)c1cnccn1)B(O)O [Bortezomib] (partner 0.002 µM)
How it was run: as §1

| Cell Line | relative viability ([1]; first compound 0.04 µM) | relative viability ([1]; first compound 0.1265 µM) | relative viability ([1]; first compound 0.4 µM) | relative viability ([1]; first compound 1.265 µM) | relative viability ([1]; first compound 4 µM) | relative viability ([2]; first compound 0.04 µM) | relative viability ([2]; first compound 0.1265 µM) | relative viability ([2]; first compound 0.4 µM) | relative viability ([2]; first compound 1.265 µM) | relative viability ([2]; first compound 4 µM) | relative viability ([3]; first compound 0.04 µM) | relative viability ([3]; first compound 0.1265 µM) | relative viability ([3]; first compound 0.4 µM) | relative viability ([3]; first compound 1.265 µM) | relative viability ([3]; first compound 4 µM) | relative viability (Mirin + Bortezomib; first compound 0.25 µM) | relative viability (Mirin + Bortezomib; first compound 0.7906 µM) | relative viability (Mirin + Bortezomib; first compound 2.5 µM) | relative viability (Mirin + Bortezomib; first compound 7.906 µM) | relative viability (Mirin + Bortezomib; first compound 25 µM) |
| --- | --- | --- | --- | --- | --- | --- | --- | --- | --- | --- | --- | --- | --- | --- | --- | --- | --- | --- | --- | --- |
| HCC-78 | 0.465 | 0.53 | 0.494 | 0.605 | 0.705 | 0.347 | 0.37 | 0.359 | 0.381 | 0.372 | 0.614 | 0.618 | 0.637 | 0.588 | 0.555 | 0.449 | 1.03 | 0.524 | 0.397 | 0.424 |
| HCC-366 | 1.32 | 1.11 | 0.151 | 0.0688 | 0.0348 | 0.789 | 0.898 | 0.939 | 0.297 | 0.911 | 0.539 | 0.64 | 0.57 | 0.432 | 0.536 | 1.06 | 0.986 | 1.09 | 0.981 | 0.977 |
| HCC-827 | 0.99 | 1.04 | 0.906 | 0.666 | 0.885 | 0.829 | 0.69 | 0.719 | – | 0.673 | 0.453 | 0.357 | 0.406 | – | 0.404 | 1.07 | 1.08 | 1.01 | 1.07 | 1.15 |
| HOP-62 | 0.875 | 0.829 | 0.816 | 0.756 | 0.212 | 0.81 | 0.794 | 0.756 | 0.757 | 0.85 | 0.47 | 0.664 | 0.655 | 0.653 | 0.616 | 0.727 | 0.867 | 0.725 | – | 0.836 |
| IA-LM | 1.31 | 0.972 | 0.99 | 0.795 | 0.811 | – | – | – | – | – | – | – | – | – | – | 0.687 | 0.961 | 0.757 | 0.632 | 0.845 |
| LC-2-ad | 1.1 | 0.936 | 0.756 | 0.448 | 0.281 | 0.826 | 0.908 | 0.913 | 0.69 | 0.791 | 0.52 | 0.547 | 0.604 | 0.495 | 0.679 | 0.996 | 1.07 | 1.03 | 0.907 | 1.03 |
| LCLC-97TM1 | 0.662 | 0.896 | 0.397 | – | 0.247 | 0.477 | 0.582 | 0.452 | 0.506 | 0.577 | 0.477 | 0.406 | 0.412 | 0.478 | 0.498 | 0.589 | – | 0.582 | 0.278 | 0.868 |
| LCLC-103H | 1.08 | 1.11 | 0.932 | 0.651 | 0.716 | 0.48 | 0.492 | 0.4 | 0.456 | 0.457 | 0.303 | 0.294 | 0.322 | 0.289 | 0.348 | 1.12 | 1.07 | 0.959 | 1.23 | 1.12 |
| LK-2 | – | – | – | – | – | 0.17 | 0.22 | 0.182 | 0.165 | 0.23 | 0.416 | 0.565 | 0.407 | 0.23 | 0.523 | – | – | – | – | – |
| LOU-NH91 | 0.561 | 0.526 | 0.439 | 0.343 | 0.377 | 0.613 | 0.709 | 0.711 | 0.677 | 0.75 | 0.605 | 0.692 | 0.685 | 0.669 | 0.714 | 0.417 | – | 0.47 | 0.455 | 0.503 |
| LU99A | 1.03 | 0.97 | 0.86 | 0.783 | 0.589 | 0.287 | 0.281 | 0.316 | 0.283 | 0.289 | 0.858 | 0.795 | 0.808 | 0.634 | 0.942 | 1.07 | 0.93 | 1.17 | 1 | 0.968 |
| NCI-H358 | – | – | – | – | – | 0.867 | 0.656 | 0.772 | 0.62 | 0.764 | 0.345 | 0.289 | 0.372 | 0.317 | 0.349 | – | – | – | – | – |
| NCI-H522 | – | – | – | – | – | 0.656 | 0.771 | 0.575 | 0.627 | 0.675 | 0.628 | 0.583 | 0.571 | 0.64 | 0.601 | – | – | – | – | – |
| NCI-H1299 | 1.06 | 0.975 | 0.929 | 0.825 | 0.734 | – | – | – | – | – | – | – | – | – | – | 1.02 | 1.12 | 1.01 | 1.05 | 1.17 |
| NCI-H1395 | – | – | – | – | – | 0.572 | 0.669 | 0.615 | 0.641 | 0.671 | 0.41 | 0.436 | 0.444 | 0.415 | 0.458 | – | – | – | – | – |
| NCI-H1623 | – | – | – | – | – | 0.399 | 0.39 | 0.431 | 0.437 | 0.432 | 0.58 | 0.543 | 0.604 | 0.525 | 0.62 | – | – | – | – | – |
| NCI-H1648 | – | – | – | – | – | 0.259 | 0.278 | – | 0.278 | 0.314 | – | – | – | – | – | – | – | – | – | – |
| NCI-H1703 | 0.369 | 0.283 | 0.178 | 0.187 | 0.178 | – | – | – | – | – | – | – | – | – | – | 0.449 | 0.483 | 0.347 | – | 0.227 |
| NCI-H1793 | – | – | – | – | – | 0.22 | 0.301 | 0.25 | – | 0.259 | 0.359 | 0.354 | 0.292 | – | 0.253 | – | – | – | – | – |
| NCI-H1944 | – | – | – | – | – | 0.524 | 0.382 | 0.385 | 0.338 | 0.39 | 0.239 | 0.188 | 0.187 | 0.162 | 0.227 | – | – | – | – | – |
| NCI-H2170 | – | – | – | – | – | 0.672 | 0.682 | 0.752 | 0.732 | 0.726 | 0.401 | 0.359 | 0.351 | 0.382 | 0.361 | – | – | – | – | – |
| NCI-H2342 | – | – | – | – | – | 0.607 | 0.577 | 0.574 | 0.479 | 0.586 | 0.579 | 0.477 | 0.611 | 0.429 | 0.547 | – | – | – | – | – |
| SK-MES-1 | – | – | – | – | – | 0.648 | 0.592 | 0.597 | 0.57 | 0.622 | 0.613 | 0.608 | 0.583 | 0.622 | 0.528 | – | – | – | – | – |
| SW 900 | – | – | – | – | – | 0.529 | 0.543 | 0.539 | 0.421 | 0.476 | 0.571 | 0.555 | 0.648 | 0.551 | 0.832 | – | – | – | – | – |
